Here are results for 1 sequence from patent publication US20250034218A1, “ANTIMICROBIAL PEPTIDES” (BiomEdit, LLC, priority 2021, published 2025).

Usually MIC stands for the least concentration at which growth counts as inhibited. Low readings indicate a more susceptible organism, high ones a less susceptible organism.

Ends that are not written are not given here.

For data set [1] the following is noted: 90° C. for 30 minutes; cited from earlier work.
The subject of another data set is P. mutlocida. The data set is classed as cell-based, Pasteurella multocida. As to the method: (§1) CAP18 peptide (wild type peptide also herein designated as AMP01) has application and utility for multiple indications in livestock, poultry & aqua species. […] Cap18 peptide is active against viruses of significance for the animal industry, such as PRRSV (PRRS, swine) (FIG. 2C). […] FIG. 3 depicts activity of CAP18 peptide (AMP01) against Giardia.
(§2) Antimicrobial effect of CAP18 against BRD pathogens M. haemolytica and P. multocida was evaluated.

For another data set, the system named is Giardia. Description: Giardia plate assay, % of control (Table 3). It is filed as cell-based. As to conditions: plate G7. From the text: Data comparing AMP01 (wild type CAP 18 peptide (SEQ ID NO: 1) with various other agents is tabulated in Table 3. NTZ corresponds to nitazoxanide. ALB corresponds to albendazole.
Data set [2] relates to porcine reproductive and respiratory syndrome virus (PRRSV). Description: Inhibition of PRRS virus infection. The data set is classed as cell-based. As to conditions: 1:2 and 1:4 diluted. As to the method: Antibacterial peptide CAP18 was evaluated for activity inhibiting virus, particularly its antiviral effect on porcine reproductive and respiratory syndrome virus (PRRSV). Results are provided in Figure S. AMP01 polypeptide was evaluated at 1:2 and 1:4 diluted and shown to be effective.

For a further data set, the system named is M. haemolytica. The data set is classed as cell-based, Mannheimia haemolytica. As to conditions: plate assay, FIG. 2B. How it is done: as §1, §2
Data set [3] relates to E. coli DH5alpha. The data set is classed as cell-based, Escherichia coli. As to conditions: peptide treated with proteinase K at 37° C. before MIC assay. How it is done:
CAP18 peptide variants single mutants were evaluated for resistance to proteinase K. Peptides were subjected to proteinase K treatment and then assessed for bacterial cell killing (against E. coli) in a MIC assay.
CAP18 variants were synthesized from GenScript, Inc, and solubilized in sterile purified water to a final concentration of 4 mg/ml. E. coli DH5alpha was grown overnight in 10 ml LB broth. Ten microliters of each CAP18 variant was treated with 2 μl of proteinase K (Qjagen, >600 mAU/ml) and incubated at 37° C. for 2 or 5 minutes in a PCR machine. The samples were then incubated at 98° C. for 5 minutes to inactivate proteinase K. An MIC assay was set up using proteinase K-treated CAP18 variants in a 96-well plate. Briefly, the peptides were serially diluted 2-fold in LB broth to achieve a final volume of 50 μl in each well and 50 μl of the E. coli DH5alpha culture adjusted to a concentration of 2×10^6 cells/ml was added into each well. Appropriate controls (media only control, no CAP18 control) were included on the same plate. The plates were incubated at 37° C. for 24-48 hours and MIC for each variant was recorded. The experiment was repeated 3 times.

For the next data set, the system named is Giardia trophozoites. Description: Giardia trophozoite test tube assay, light microscopy. As to conditions: AMP01 100 μM, FOR 5 μM. The data set is classed as cell-based. As to the method: Test tube with a confluent layer of trophozoites is treated with AMP01 (100 μM). Light microscopy, counting of detached dead or alive (i.e. motile) trophozoites is then conducted. Formononetin (5 μM; FOR) is used for comparison as a positive control.
The changes in morphology were still visible one day after the treatment and are depicted in FIG. 3 (photographs all taken at 100×). After 1 d, the trophozoites in the control tube (FIG. 3A) were fully alive (and overgrowing), as expected. […] The different sizes of the trophozoites can be noted by comparing the white circles. Similar effects were observed using cytotoxic anti-variant surface protein antibodies (Hemphil et al. 1996).

The next data set relates to E. coli DH5 alpha. The data set is classed as cell-based, Escherichia coli. As to the method: A MIC assay was set up using heat treated CAP18 variants in a 96-well plate. […] Appropriate controls (media only control, no CAP18 control) were included on the same plate. The plates were incubated at 37° C. for 24-48 hours and MIC for each variant was recorded. The experiment was repeated 3 times.

The test system of a further data set is Eimeria. The experiment in a line: Inhibition of Eimeria parasites. It is filed as cell-based. The following applies: Eimeria (Coccidiosis, poultry). How it is done: The effect of Cap 18 peptides and any variants thereof is tested on Eimeria. An exemplary study is provided with results depicted in FIG. 4. Three independent experiments were conducted with CAP18 peptides—designated Cap18a, Cap18b and Cap18c. The CAP18 peptides were compared with monensin as a positive control. Three independent experiments with monensin (designated Mona, Monb and Monc).

Data set [4] relates to Methanobacterium bryantii. Description: In-vitro screening, growth of rumen methanogen. It is filed as cell-based. The following applies: FIGS. 10A and 10B; BES as positive control. From the text:
BES, a known methanogen inhibitor shown in FIG. 10C, was used as a positive control.

The subject of data set [5] is E. coli DH5alpha. The data set is classed as cell-based, Escherichia coli. The following applies: peptide treated with trypsin at 37° C. before MIC assay. As to the method:
CAP18 peptide variants single mutants were evaluated for resistance to trypsin. Peptides were subjected to trypsin protease treatment and then assessed for bacterial cell killing (against E. coli) in a MIC assay.
CAP18 variants were synthesized from GenScript, Inc, and solubilized in sterile purified water to a final concentration of 4 mg/ml. E. coli DH5alpha was grown overnight in 10 ml LB broth. Ten microliters of each CAP18 variant was treated with 2 μl (or 2 μl of the 10-fold diluted trypsin) of trypsin (0.25%, Sigma Aldrich) and incubated at 37° C. for 2 or 5 minutes in a PCR machine. The samples were then incubated at 98° C. for 5 minutes to inactivate trypsin. An MIC assay was set up using trypsin-treated CAP18 variants in a 96-well plate. Briefly, the peptides were serially diluted 2-fold in LB broth to achieve a final volume of 50 μl in each well and 50 μl of the E. coli DH5alpha culture adjusted to a concentration of 2×10^6 cells/ml was added into each well. Appropriate controls (media only control, no CAP18 control) were included on the same plate. The plates were incubated at 37° C. for 24-48 hours and MIC for each variant was recorded. The experiment was repeated 3 times.

A further data set deals with Y. ruckeri. The following applies: injection before exposure to Y. ruckeri; compared to non-treated fish; cited from earlier work.

On to “GLRKRLRKFRNKIKEKLKKIGQKIQGLLPKLAPRTDY [AMP01]”, for which the “antimicrobial activity after heat treatment” value in data set [1] is “retain full antimicrobial activity”. Moreover, the MIC in the data set with P. mutlocida and in the data set with M. haemolytica was 4 to 8 µg/mL in each case. The “% of control MV” value in the data set on Giardia (Conc 10 (uM or %)) worked out at 141.1%; in the data set on Giardia (Conc 100 (uM or %)), 1.0%. The “antiviral effect on PRRSV” value in data set [2] was “effective”. Besides, in the data set with E. coli DH5alpha [3], the “Resistance to proteinase K (MIC, ug/ml)” value was >400 µg/mL. For the same sequence, the detachment of trophozoites result with Giardia trophozoites (after 1 h) is on record as “nearly complete detachment”. Further, the “morphology and motility of detached trophozoites” value in the data set with Giardia trophozoites (after 1 h) was “crumbled, shrunken and immotile”. Also, the state of trophozoites result in the data set with Giardia trophozoites (after 1 d) is “dead, shrunken and started to disintegrate”. Besides, the “Thermotolerance at 90 for 5 minutes (MIC, ug/ml)” value in the data set with E. coli DH5 alpha is 200 µg/mL. Moreover, the “inhibiting activity of parasites” value in the data set on Eimeria is recorded as “effective in inhibiting activity”. Moreover, the “growth of rumen methanogen” value in data set [4] is “inhibits the growth”. In the data set on E. coli DH5alpha [5], the “Resistance to trypsin (MIC, ug/ml)” value was 25 µg/mL. In the data set on Y. ruckeri, the mortality result is given as “lower mortality”.
